In patent US8748485B2, “Compound and medical use thereof” (Ono Pharmaceuticals Co., Ltd., priority 2010, dated 2014):

Experiments:
[1] = Kinetic study in dogs (oral administration, plasma levodopa)
Excerpt: The relationship between the blood concentration of levodopa and side effects in patients who take levodopa has been gradually elucidated. […] In order to reduce the number of doses of levodopa and avoid side effects such as dyskinesia and wearing-off in patients who take levodopa, it is necessary to maintain the blood concentration of levodopa within a therapeutic range as long as possible.
These levodopa prodrugs are prodrugs containing an ester bond, and therefore, it is considered that among a number of enzymes, carboxyesterase plays the most important role in the process of producing levodopa by metabolizing the compound after the compound is administered in vivo. Therefore, as an animal species to be used for performing a kinetic study, dogs in which the organ distribution of carboxyesterase is most similar to that of humans were selected as subjects for evaluation.
The thus obtained drug solution was administered by gavage through a gastric tube into the stomach of dogs (male beagle dogs) which were fasted from the day before the administration. At 15 and 30 minutes, and 1, 2, 4, 6, and 8 hours after administration of the drug solution, 1 mL of blood was collected from a cephalic vein with a heparinized syringe. Immediately after the collection, the collected blood was centrifuged in a desktop centrifuge at 14500 rpm for 45 seconds. Then, acetonitrile containing 0.1125% formic acid was added to the thus obtained plasma in an amount as twice as large as the volume of the plasma, followed by stirring, and then, the resulting sample was stored at −20° C. until measurement.
The sample was thawed on the measurement day, followed by stirring and centrifugation at 13000 rpm for 3 minutes (at 4° C.). The resulting supernatant was filtered and the filtrate was analyzed by LC/MS/MS. The analysis was performed by LC/MS/MS under the following conditions.
Measurement Apparatus: API-5000 (manufactured by Applied Biosystems, Inc.)
Analytical column: CAPCELL PAK CR (1:4) (4.6 mm, I.D.×250 mm, 5 μm)
Analytical column temperature: 40° C.
Mobile phase: A: 5 mM ammonium formate (pH 3.9), B: acetonitrile (A/B=17/3)
Detection (levodopa): m/z (precursor): 196.19, m/z (product): 134.99
DP (Declustering Potential): −60
CE (Collision Energy): −25
CXP (Collision Cell Exit Potential): −17
Incidentally, the numerical value in the column which indicates the dose expressed in terms of levodopa refers to a dose equivalent to that of levodopa.

p53R2 = test: Mutagenicity assay using mammalian cells (NESMAGET method); format: cell-based; settings: for Mutagenicity assay (NESMAGET) Concentration at which mutagenicity was determined to be positive: concentration at which relative luciferase activity of p53R2 exceeded 200% (vehicle control 0.3% dimethylsulfoxide = 100%); for determination of mutagenicity: positive = relative luciferase activity of p53R2 exceeded 200%, compound of the present invention up to 200 μg/mL
Description: In the treatment of Parkinson's disease and/or Parkinson's syndrome, there is a possibility that a levodopa prodrug is continued to be taken over a long period of time of several years to several decades. Therefore, an evaluation was carried out as to whether or not the compound of the present invention has mutagenicity by a mutagenicity assay using mammalian cells.
A mutagenicity assay using mammalian cells was carried out as a commissioning test to be undertaken by Nissin Foods Holdings Co., Ltd. The present method also called NESMAGET method is a method in which the expression of p53R2 which is a DNA repair gene is detected by luciferase activity, and the specific experimental technique is described in JP-A-2005-000024 and Japanese Patent No. 4243716. In the determination as to whether or not the result of this test was positive, the luciferase activity of p53R2 in the case of a vehicle control (0.3% dimethylsulfoxide) was taken as 100%, and a concentration at which a relative luciferase activity exceeded 200% was determined to be “concentration at which mutagenicity was determined to be positive”.

[2] = Kinetic study in dogs (effect of salt or crystal form on blood kinetics); format: in vivo; settings: 6 mg/3 mL/kg expressed in terms of levodopa
Description: (2) Kinetic Study in Dogs (Effect of Salt or Crystal Form on Blood Kinetics)
In general, it is considered that when the salt or crystal form is different, a difference in solubility thereof or the like affects blood kinetics and sometimes causes a difference in potency of efficacy.
The collection of a plasma sample was carried out according to the previous section (1). However, the dose was set to 6 mg/3 mL/kg.
The preparation of an analytical sample and analysis were carried out according to the previous section (1).
In the above Table 6, a change over time in the concentration (μg/mL) of levodopa observed in the plasma when the compound of the present invention produced in Example 6, the compound of the present invention produced in Example 9, or the compound of the present invention produced in Example 10 was orally administered to dogs is shown. The numeral expressed with ± in the parenthesis represents a standard deviation.

[3] = system: rat model injected with 6-hydroxydopamine into the medial forebrain bundle; test: Rotation test in model injected with 6-hydroxydopamine into medial forebrain bundle; format: in vivo, rats (male Crl:CD(SD)IGS); settings: 6-OHDA rats
Excerpt: In the experiment, male Crl:CD(SD)IGS rats (Charles River Japan, Inc.) supplied at 5 weeks of age were used. The rats were housed in Econ cages (4 or less rats per cage) and were raised by giving free access to solid feed CRF-1 (Oriental Yeast Co., Ltd.) and tap water (in a water bottle) until they were subjected to the experiment. When acclimation after shipping was completed, each of the Crl:CD(SD)IGS rats at 6 weeks of age was anesthetized with pentobarbital sodium (Somnopentyl (registered trademark) injectable solution, 35 mg/kg, intraperitoneal injection). Subsequently, for the purpose of preventing damage to norepinephrine neurons by 6-hydroxydopamine (6-OHDA), desipramine (25 mg/kg) was intraperitoneally injected, and the rat was held and fixed by a brain fixation device. A small bone window was opened with a hand drill at a desired site, and 6-OHDA was injected into the medial forebrain bundle according to the brain atlas of Paxinos and Watson using a 30 G cannula (Brain Science Idea. Co. Ltd.) with a needle tip cut at an angle of 45° (site of injection: A=−4.5 mm, L=+1.2 mm, and V=−7.8 mm with respect to the bregma, injection amount: 8 μg/4 μL/8 min/site in each case). […] Thereafter, the burr hole was closed with an instant glue, and then sutured and disinfected with iodine tincture. […] In a rotation test, a device configured such that a black plastic circular cylinder having a diameter of 30 cm and a height of 35 cm was placed upright in a black-painted bowl having an opening diameter of 35 cm and a bottom diameter of 17 cm was used (the height of the curve from the bottom of the bowl to the bottom edge of the cylinder was set to 7 cm). The rat was placed in the device (one rat per device) and acclimated to the device for 30 minutes. Thereafter, a test substance was administered to the rat, and the rat was returned to the same device and videotaped. […] As for the number of rotations, a 360° rotation in one direction was determined to be one rotation. In the case where the direction (body's direction of movement or movement direction) was changed during rotation, the rotation was not included in the count. […] Incidentally, in each case, benserazide which is a dopa decarboxylase inhibitor (8 mg/kg) was orally administered concomitantly. […] In addition, the respective values are each a mean of the values obtained using 11 rats in each group and its standard error.

[4] = in vivo; cited from earlier work
[5] = male, beagle, dog, in vivo, po, 3 mg/kg

SMILES	AUC (area under the blood concentration-time curve of levodopa) ([1]; dog, in vivo, po, 3 mg/kg) [μg^+ hr/mL]	Cmax/C6 hr (ratio of maximum plasma concentration and plasma concentration at 6 hours after oral administration, levodopa) [1, 5]	Mutagenicity assay (NESMAGET) Concentration at which mutagenicity was determined to be positive (p53R2) [µg/mL]	determination of mutagenicity (p53R2)	Absorption through oral administration [2]	also measured
CC(C)(OC(=O)c1ccccc1)C(=O)Oc1ccc(C[C@H](N)C(=O)O)cc1OC(=O)C(C)(C)OC(=O)c1ccccc1.Cc1ccc(S(=O)(=O)O)cc1 [Example 6, (2S)-2-amino-3-(3,4-bis((2-(benzoyloxy)-2-methylpropanoyl)oxy)phenyl)propanoic acid tosylate]	–	–	–	–	can be absorbed through oral administration	–
CC(C)(OC(=O)c1ccccc1)C(=O)Oc1ccc(C[C@H](N)C(=O)O)cc1OC(=O)C(C)(C)OC(=O)c1ccccc1 [Example 9, (2S)-2-amino-3-(3,4-bis((2-(benzoyloxy)-2-methylpropanoyl)oxy)phenyl)propanoic acid]	–	–	–	–	can be absorbed through oral administration	rotational behavior compared with the compound produced in Example 5 ([3]; used in place of Example 5): the same results were obtained
CC(C)(OC(=O)c1ccccc1)C(=O)Oc1ccc(C[C@H](N)C(=O)O)cc1OC(=O)C(C)(C)OC(=O)c1ccccc1 [Example 10, (2S)-2-amino-3-(3,4-bis((2-(benzoyloxy)-2-methylpropanoyl)oxy)phenyl)propanoic acid]	–	–	–	–	can be absorbed through oral administration	–
N[C@@H](Cc1ccc(O)c(O)c1)C(=O)O [Levodopa, L-3,4-dihydroxyphenylalanine]	–	913.8	–	–	–	AUC (area under the blood concentration-time curve of levodopa) ([1]; levodopa in plasma, fasted male beagle dogs, oral gavage, dose 3 mg/kg expressed in terms of levodopa): 0.96 μg^+ hr/mL; AUC ([1]; male, beagle, dog, plasma, po, 3 mg/kg): 960 ng·h/mL; time after administration at which the number of rotations reached a maximum value ([3]; oral, levodopa 30 mg/kg or Example 5 100 mg/kg expressed in terms of levodopa, benserazide 8 mg/kg): 20 min; maximum value of the number of rotations per 10 minutes ([3]; oral, levodopa 30 mg/kg or Example 5 100 mg/kg expressed in terms of levodopa, benserazide 8 mg/kg concomitantly, N=11): about 100 times; percentage of the absorbed levodopa distributed in the central nervous system [4]: less than 1%; share of the absorbed levodopa metabolized by aromatic L-amino acid decarboxylase (AADC) in organs other than the central nervous system [4]: ≥ 95%

Further lines, with some results ahead:

AUC (area under the blood concentration-time curve of levodopa) ([1]; dog, in vivo, po, 3 mg/kg) [μg^+ hr/mL]	Cmax/C6 hr (ratio of maximum plasma concentration and plasma concentration at 6 hours after oral administration, levodopa) [1, 5]	SMILES	Mutagenicity assay (NESMAGET) Concentration at which mutagenicity was determined to be positive (p53R2) [µg/mL]	determination of mutagenicity (p53R2)	Absorption through oral administration [2]	also measured
0.52	23.9	CC(C)(COC(=O)c1ccsc1)C(=O)Oc1ccc(C[C@H](N)C(=O)O)cc1OC(=O)C(C)(C)COC(=O)c1ccsc1.Cl [Reference Example 11, (2S)-2-Amino-3-(3,4-bis((2,2-dimethyl-3-((thiophene-3-carbonyl)oxy)propanoyl)oxy)phenyl)propanoic acid hydrochloride]	1.4	positive for mutagenicity	–	–
0.66	14.7	CC(C)(COC(=O)c1cccs1)C(=O)Oc1ccc(C[C@H](N)C(=O)O)cc1OC(=O)C(C)(C)COC(=O)c1cccs1.Cl [Reference Example 6, (2S)-2-Amino-3-(3,4-bis((2,2-dimethyl-3-((thiophene-2-carbonyl)oxy)propanoyl)oxy)phenyl)propanoic acid hydrochloride]	2.4	positive for mutagenicity	–	–
0.81	4.3	CC(C)(COC(=O)c1ccccc1)C(=O)Oc1ccc(C[C@H](N)C(=O)O)cc1OC(=O)C(C)(C)COC(=O)c1ccccc1.Cl [Reference Example 40, (S)-2-Amino-3-(3,4-bis((3-(benzoyloxy)-2,2-dimethylpropanoyl)oxy)phenyl)propanoic acid hydrochloride]	16	positive for mutagenicity	–	–
